Measurements from article PMC4605326 (Nucleic Acids Research, 2015).

Tested on: BsPif1
Details: 50 nM enzyme; 67-mer ss oligonucleotide 25 μg/ml; 25 mM Tris-HCl pH 7.5, 50 mM NaCl, 2 mM MgCl2, 2 mM DTT; 37°C

`Nc1ncnc2c1ncn2[C@@H]1O[C@H](COP(=O)(O)OP(=O)(O)OP(=O)(O)O)[C@@H](O)[C@H]1O` [ATP] gave a Km of 0.2 µM.
